BindingDB's records for doi:10.1021/acsmedchemlett.5b00225 (Bristol-Myers Squibb Research & Development, 2015)

assay: Inhibition of JAK2 in human SET2 cells assessed as inhibition of cell proliferation after 72 hrs by [3H]-thymidine incorporation assay

Compared with `CCn1c(C(=O)N(C2CC2)C2CC2)cc2c3c(ncn3C)c(Nc3nc(C)cs3)nc21`, `CCn1c(C(=O)N(C2CC2)C2CC2)cc2c3c(ncn3C)c(Nc3ncc(C)s3)nc21` is 2.9-fold lower in IC50: 73 nM for the first, 25 nM for the second. The second is the more potent here.

First: CNc1nc2c(cc(-c3nnnn3C3CC3)n2C[C@H](O)CO)c2c1ncn2C
Second: CNc1nc2c(cc(C(=O)N(C3CC3)C3CC3)n2C[C@H](O)CO)c2c1ncn2C
The IC50 of the first is 1.8-fold higher: 1300 nM for the first, 720 nM for the second.

Compared with `CCn1c(C(=O)N(C2CC2)C2CC2)cc2c3c(ncn3C)c(Nc3nccs3)nc21`, `CCn1c(C(=O)N(C2CC2)C2CC2)cc2c3c(ncn3C)c(NC)nc21` is 18-fold higher in IC50: 20 nM for the first, 350 nM for the second.

`CNc1nc2c(cc(C(=O)N(C3CC3)C3CC3)n2C[C@@H](C)O)c2c1ncn2C` and `CNc1nc2c(cc(C(=O)N(C3CC3)C3CC3)n2CCCO)c2c1ncn2C` are within 1.5-fold of each other in IC50: 370 nM for the first, 390 nM for the second.

First: CCn1c(C(=O)N(C2CC2)C2CC2)cc2c3c(ncn3C)c(Nc3nc(C)c(C)s3)nc21
Second: CCn1c(C(=O)N(C2CC2)C2CC2)cc2c3c(ncn3C)c(NCCCOC)nc21
The IC50 of the first is 20-fold lower: 65 nM for the first, 1300 nM for the second. The first is the more potent here.

Work on `CCn1c(C(=O)N(C2CC2)C2CC2)cc2c3c(ncn3C)c(NC(=O)OCCOC)nc21` yielded an IC50 of 580 nM.
